{"source": "patent US12673022B2", "about": "“Drug delivery system using solution” (Kyoto University, priority 2018, dated 2026)", "key": {"[1]": {"test_system": "EGFP reporter cells (C2C12 cells)", "experiment": "Number of HOECHST cells detected (cell viability) in the EGFP-SSA assay", "settings": "Example 1; compound 250.0 mM vs 250 mM GABA positive control on the same plate; formula (2)", "method": "To each of the solutions, a complex of gRNA and Cas9 protein was further dissolved. Mouse myoblasts (C2C12 cells) were contacted with each of the solutions in vitro, and target gene cleavage activity and cell viability were evaluated."}, "[2]": {"test_system": "C57BL/6J mouse right lower limb gastrocnemius", "experiment": "DNA mutation introduction efficiency using mRosa26 gRNA (T7E1 assay) after local administration", "assay_type": "in vivo", "settings": "Example 6; administration solution 2: 25 mM or 250 mM 2′-deoxycytidine, 6-phospho-D-gluconic acid, N-carbamyl-L-aspartic acid or 2-deoxy-D-glucose-6-phosphate, 533 mM sodium chloride; 50 μL once; Dunnett's test; FIG. 10", "description": "Cas9 protein (20 μg), mRosa26 gRNA (5 μg), 10×PBS (5 μL) and a 2.0 M aqueous 2′-deoxycytidine solution (6.25 μL) were mixed so as to obtain an aqueous solution having final concentrations of 400 ng/μL Cas9 protein, 100 ng/μL mRosa26 gRNA, 533 mM sodium chloride and 250 mM 2′-deoxycytidine. The concentration of the resultant solution was adjusted to be 533 mM with a 5 M aqueous sodium chloride solution, diluted with UltraPure DNase/RNase-Free Distilled Water up to a liquid volume of 50 μL and incubated at normal temperature for 15 minutes. […] The Cas9 protein herein was subjected to buffer replacement with 250 mM sodium chloride by use of Amicon® Ultra 2 mL Centrifugal Filters and then put in use.\nCas9 protein (40 μg), mRosa26 gRNA (10 μg), 10×PBS (5 μL), and a […] compound stock solution (25 μL) were mixed so as to obtain final concentrations: 800 ng/μL Cas9 protein, 200 ng/μL mRosa26 gRNA, 533 mM sodium chloride and 250 mM compound. […]\nTo the right lower limb gastrocnemius of each of 9 weeks-old male C57BL/6J mice (CLEA Japan, Inc), administration solution 1 or administration solution 2 and PBS (50 μL) were administered. […] The resultant PCR product was purified by QIAquick PCR purification kit (QIAGEN), treated with T7 Endonuclease I (NEB) and analyzed by Agilent 4200 TapeStation (Agilent). […]\nAs shown in FIG. 10 and FIG. 11, to find statistical significant difference between GABA and each conditions of the compounds, Dunnett's multiple comparison test using DNA mutation introduction efficiency, Indel (%), and exon skipping efficiency, was carried out. It was determined that if P value is less than 0.05, these is a statistically significant difference. […]\nA solution for transduction containing 2′-deoxycytidine as a compound (A3) and sodium chloride as the (B) salt was prepared. […] Administration solution 1 was locally administered to the mouse right lower limb gastrocnemius and the activity to cleave a target gene was evaluated. […]"}}}
{"smiles": "NC(=O)N[C@@H](CC(=O)O)C(=O)O", "note": "[N-Carbamyl-L-aspartic acid]", "values": [{"measurement": "Relative ratio to GABA: Number of HOECHST cells", "setting": "[1]", "result": 1.19}, {"measurement": "Genome editing efficiency (indel (%)) compared to 250 mM GABA", "setting": "[2]", "result": "statistically significant results compared to GABA"}]}
